Measurements published in ChEMBL document CHEMBL5550173, “Design, synthesis and biological evaluation of indoline-maleimide conjugates as potential antitumor agents for the treatment of colorectal cancer” (Bioorg Med Chem, 2024).
pIC50: −log10 of the molar value.

Key:
HCT-116 [1] = assay: Cytotoxicity against human HCT-116 cells at 5 uM incubated for 72 hrs by MTS assay; assay type: functional
RKO [2] = assay: Cytotoxicity against human RKO cells at 5 uM incubated for 72 hrs by MTS assay; assay type: functional
HT-29 [3] = assay: Cytotoxicity against human HT-29 cells at 5 uM incubated for 72 hrs by MTS assay; assay type: functional
HCT-116 [4] = assay: Cytotoxicity against human HCT-116 cells incubated for 72 hrs by MTS assay; assay type: functional, cell-based; conditions: HCT-116, 72 h
RKO [5] = assay: Cytotoxicity against human RKO cells incubated for 72 hrs by MTS assay; assay type: functional, cell-based
HT-29 [6] = assay: Cytotoxicity against human HT-29 cells incubated for 72 hrs by MTS assay; assay type: functional, cell-based; conditions: HT-29, 72 h
[7] = Cytotoxicity against human NCM460 cells incubated for 72 hrs by MTS assay; assay type: toxicity, cell-based

Structure (SMILES)	Activity (HCT-116 [1])	Activity (RKO [2])	Activity (HT-29 [3])	other results
C=CC(=O)N1CCc2cccc(C3=CC(=O)N(C)C3=O)c21	23.11%	78.18%	2.14%	
CCc1ccc(N2C(=O)C=C(c3cccc4c3N(C(=O)C(C)(C)C)CC4)C2=O)cc1	10.96%	7.21%	7.09%	
CC(C)N1C(=O)C=C(c2cccc3c2N(C(=O)C(C)(C)C)CC3)C1=O		19.15%		
CN1C(=O)C=C(c2cccc3c2N(C(=O)c2ccccc2)CC3)C1=O		26.15%	4.95%	
CC(C)(C)C(=O)N1CCc2cccc(C3=CC(=O)NC3=O)c21		10.96%		
CN1C(=O)C=C(c2cc(F)cc3c2N(C(=O)C(C)(C)C)CC3)C1=O	6.51%	78.58%	18.8%	
Cc1cc2c(c(C3=CC(=O)N(C)C3=O)c1)N(C(=O)C(C)(C)C)CC2		17.49%		
CC(=O)N1CCc2cccc(C3=CC(=O)N(C)C3=O)c21		48.13%	6.8%	
CC1CN(C(=O)C(C)(C)C)c2c(C3=CC(=O)N(C)C3=O)cccc21 (stereo not drawn)		56.28%	6.02%	
COC(=O)CCN1C(=O)C=C(c2cccc3c2N(C(=O)C(C)(C)C)CC3)C1=O	21.18%	59.55%		
CN1C(=O)C=C(c2cccc3c2N(C(=O)N2CCCCC2)CC3)C1=O		17.85%		
CN1C(=O)C=C(c2cccc3c2N(C(=O)C2CC2)CC3)C1=O	76.22%	88.42%	43.87%	pIC50 (HCT-116 [4]): 5.46; pIC50 (RKO [5]): 5.67; pIC50 (HT-29 [6]): 5.29
CCC(=O)N1CCc2cccc(C3=CC(=O)N(C)C3=O)c21	4.19%	80.31%		
COc1ccc2c(c1C1=CC(=O)N(C)C1=O)N(C(=O)C(C)(C)C)CC2		21.09%		
CC(C)(C)C(=O)N1CCc2cccc(C3=CC(=O)N(Cc4ccccc4)C3=O)c21		39.93%		
CC(C)(C)C(=O)N1CCc2cccc(C3=CC(=O)N(C4CCCCC4)C3=O)c21		38.47%		
CCN1C(=O)C=C(c2cccc3c2N(C(=O)C(C)(C)C)CC3)C1=O	59.58%	80.91%	16.99%	
CN(C)C(=O)N1CCc2cccc(C3=CC(=O)N(C)C3=O)c21		4.75%	5.08%	

Structure (SMILES)	Activity (HCT-116 [1])	Activity (RKO [2])	Activity (HT-29 [3])	other results
CN1C(=O)C=CC1=O	51.17%	33.16%	7.09%	
CN1C(=O)C=C(c2cc(Cl)cc3c2N(C(=O)C(C)(C)C)CC3)C1=O		15.17%		
COc1ccc(C2=CC(=O)N(C)C2=O)c2c1CCN2C(=O)C(C)(C)C		16.41%	4.04%	
CN1C(=O)C=C(c2cc(C#N)cc3c2N(C(=O)C(C)(C)C)CC3)C1=O		50.21%	4.68%	
C=C(C)C(=O)N1CCc2ccccc21			4.7%	
O=c1[nH]cc(F)c(=O)[nH]1 [FLUOROURACIL]	37.53%	52.32%	29.52%	pIC50 (HCT-116 [4]): 5.10; pIC50 (RKO [5]): 5.40; IC50 at 72 h [7]: 7.95 µM
CN1C(=O)C=C(c2ccc(Cl)c3c2N(C(=O)C(C)(C)C)CC3)C1=O		57.87%		
CN1C(=O)C=C(c2cccc3c2N(C(=O)C2CCCCC2)CC3)C1=O		65.05%		
CN1C(=O)C=C(c2c(F)ccc3c2N(C(=O)C(C)(C)C)CC3)C1=O		32.98%		
CN1C(=O)C=C(c2cccc3c2N(C(=O)C(C)(C)C)CC3)C1=O	76.85%	79.24%	49.95%	pIC50 (HCT-116 [4]): 5.40; pIC50 (RKO [5]): 5.64; pIC50 (HT-29 [6]): 5.26
CC(C)(C)C(=O)N1CCc2cccc(C3=CC(=O)N(c4ccccc4)C3=O)c21		10.63%		
CN1C(=O)C=C(c2cc(I)cc3c2N(C(=O)C(C)(C)C)CC3)C1=O		57.09%		
CN1C(=O)C=C(c2cccc3c2N(C(=O)c2cc4ccccc4o2)CC3)C1=O	11.36%	46.33%		
C=C(C)C(=O)n1ccc2cccc(C3=CC(=O)N(C)C3=O)c21	32.89%	58.25%	10.28%	
CN1C(=O)C=C(c2cccc3c2N(C(=O)N2CCOCC2)CC3)C1=O		22.03%	6.82%	
CC(=O)c1ccc(N2C(=O)C=C(c3cccc4c3N(C(=O)C(C)(C)C)CC4)C2=O)cc1			4.69%	
CC1Cc2cccc(C3=CC(=O)N(C)C3=O)c2N1C(=O)C(C)(C)C (stereo not drawn)		61.74%	2.07%	
